Data as given in publication PMC12446468, “Anti-inflammatory and cytotoxic assessment of flavonoids isolated from Viola odorata flowers with computer-guided docking study” (Scientific Reports, 2025).
In brackets after ≈: the same amount, converted by molar mass.

Key:
[1] = tested on: human colorectal carcinoma cells (HTC-116); experiment: MTT cytotoxicity assay, HTC-116; assay type: cell-based; settings: Homo sapiens, HTC-116, 48 h, read-out: IC50
Procedure: (§1) The assessment of cytotoxicity for the methanolic extract and isolated flavonoids was performed under controlled and sterile conditions within a Class II A2 Laminar flow biosafety cabinet. The carcinoma cell lines used in this study was obtained from Nawah Scientific Inc. (Cairo, Egypt). The cells were cultured in Dulbecco’s Modified Eagle’s Medium, enriched with 10% heat-inactivated fetal bovine serum, 100 U/ml penicillin, and 100 μg/ml streptomycin sulfate, maintained at […] in humidified incubators with 5% CO2. Upon reaching approximately 80% confluence, the cells were subcultured using a trypsin–EDTA solution. Harvesting occurred during the logarithmic growth phase. The methanolic extract and isolated flavonoids were dissolved in DMSO and stored at − 20 °C. For each experimental trial, the stock solutions were mixed with the culture medium to obtain the required final concentrations.
(§2) The effectiveness of the extract was compared to that of the reference drug, Doxorubicin. The percentage of cell viability was calculated by taking the ratio of the absorbance of the plant extract to that of the control, multiplied by 100. Furthermore, the IC50 value of the plant extract was determined using Sigma Plot software version 11 (Spw.exe) (https://sigmaplot.software.informer.com/11.0/).

[2] = MTT cytotoxicity assay, HTC-116; assay type: cell-based, human; settings: human, HTC-116 cells (human colorectal carcinoma), 48 h
Procedure: as §1, §2

[3] = target: T1, COX-1 (Ovis aries, UniProt P05979); experiment: COX-1 inhibition assay (Cayman COX kit); assay type: biochemical, ovine/human; settings: mean ± SE, n = 3
T1 construct: purchased Cayman 560131
T1 sequence (P05979 25-600): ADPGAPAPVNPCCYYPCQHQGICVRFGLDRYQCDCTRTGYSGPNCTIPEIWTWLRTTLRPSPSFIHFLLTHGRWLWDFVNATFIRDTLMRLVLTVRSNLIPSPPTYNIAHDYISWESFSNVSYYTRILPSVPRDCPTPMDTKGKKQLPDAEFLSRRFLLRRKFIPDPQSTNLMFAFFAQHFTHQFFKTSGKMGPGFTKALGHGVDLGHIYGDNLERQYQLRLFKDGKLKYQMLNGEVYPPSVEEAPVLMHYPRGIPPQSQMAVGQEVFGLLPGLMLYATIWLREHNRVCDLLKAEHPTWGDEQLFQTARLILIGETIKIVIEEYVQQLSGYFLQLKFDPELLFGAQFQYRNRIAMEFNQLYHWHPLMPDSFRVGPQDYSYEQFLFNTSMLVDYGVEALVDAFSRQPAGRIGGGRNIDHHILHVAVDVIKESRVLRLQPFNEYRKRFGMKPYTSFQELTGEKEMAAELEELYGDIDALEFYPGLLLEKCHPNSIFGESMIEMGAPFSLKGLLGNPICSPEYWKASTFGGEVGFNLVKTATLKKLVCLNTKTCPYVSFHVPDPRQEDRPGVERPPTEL
Excerpt: (§3) The requirements for High-Performance Liquid Chromatography (HPLC) and all compounds tested were of the utmost analytical purity. […] COX-1 and COX-2 (ovine/human), as well as the 5-LOX enzyme (human recombinant) were obtained from Sigma-Aldrich. Dulbecco’s Modified Eagle’s Medium (DMEM), along with penicillin/streptomycin and L-glutamine, were acquired from Gibco BRL, California, USA. Fetal bovine serum (FBS) and 3-(4, 5-dimethylthiazol-2-yl)-2, 5-[…] (MTT) were supplied by Sigma-Aldrich, St. Louis, Missouri, USA.
(§4) The methanolic extract of V. odorata flowers and isolated flavonoids were subjected to an in vitro anti-inflammatory assessment by inhibiting two isoenzymes, cyclooxygenase COX-1 and COX-2 (ovine/human), as well as the 5-LOX enzyme (human recombinant).

[4] = MTT cytotoxicity assay, Caco-2; assay type: cell-based, human; settings: human, Caco-2 cells (human colonic epithelial cells), 48 h
Procedure: as §1, §2

[5] = tested on: human colonic epithelial cells (Caco-2); experiment: MTT cytotoxicity assay, Caco-2; assay type: cell-based; settings: Homo sapiens, Caco-2, 48 h, read-out: IC50
Procedure: as §1, §2

[6] = tested on: hepatocellular carcinoma (HepG2); experiment: MTT cytotoxicity assay, HepG2; assay type: cell-based, human; settings: Homo sapiens, HepG2, 48 h, read-out: IC50
Procedure: as §1, §2

[7] = MTT cytotoxicity assay, HepG2; assay type: cell-based, human; settings: human, HepG2 cells (hepatocellular carcinoma), 48 h
Procedure: as §1, §2

[8] = target: T2, 5-LOX enzyme (human recombinant) (Homo sapiens, UniProt P09917); experiment: 5-lipoxygenase inhibition assay (5-LOX kit); assay type: biochemical; settings: mean ± SE, n = 3
T2 construct: purchased Sigma-Aldrich 437996
T2 sequence (P09917 1-674): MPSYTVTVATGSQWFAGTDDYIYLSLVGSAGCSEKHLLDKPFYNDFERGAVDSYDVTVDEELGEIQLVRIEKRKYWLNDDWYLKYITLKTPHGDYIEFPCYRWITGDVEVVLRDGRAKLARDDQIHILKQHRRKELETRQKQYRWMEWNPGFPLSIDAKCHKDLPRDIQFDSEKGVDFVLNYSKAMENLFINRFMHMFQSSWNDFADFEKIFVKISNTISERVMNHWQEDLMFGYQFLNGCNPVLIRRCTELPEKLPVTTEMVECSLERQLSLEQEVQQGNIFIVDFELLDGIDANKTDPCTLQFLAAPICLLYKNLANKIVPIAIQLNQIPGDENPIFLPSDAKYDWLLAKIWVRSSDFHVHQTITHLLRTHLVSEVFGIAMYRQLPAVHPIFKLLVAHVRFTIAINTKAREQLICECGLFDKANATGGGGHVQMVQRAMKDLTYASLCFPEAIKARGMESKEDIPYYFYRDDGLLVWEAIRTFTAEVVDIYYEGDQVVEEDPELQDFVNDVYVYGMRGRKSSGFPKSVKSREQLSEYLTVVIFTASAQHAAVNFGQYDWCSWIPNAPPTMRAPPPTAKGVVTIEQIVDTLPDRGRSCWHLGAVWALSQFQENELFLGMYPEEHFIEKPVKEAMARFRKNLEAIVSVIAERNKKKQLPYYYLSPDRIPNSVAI
Excerpt: as §3, §4

In the case of COc1c(O)cc2oc(-c3ccccc3)c(OC)c(=O)c2c1O [5,7-Dihydroxy-3,6-dimethoxyflavone], the IC50 [1] is reported as 31.9 µg/mL (≈ 101 µM), the cytotoxicity at 48 h, 6.25 µg/ml ([2]; HTC-116, 6.25 ug/ml) is reported as 29.8% and the viability at 48 h, 6.25 µg/ml ([2]; HTC-116, 6.25 ug/ml, read-out: % Cell viability) is reported as 70.2%. For the same molecule, the cytotoxicity at 48 h, 12.5 µg/ml ([2]; HTC-116, 12.5 ug/ml) was 39.2%, the viability at 48 h, 12.5 µg/ml ([2]; HTC-116, 12.5 ug/ml, read-out: % Cell viability) was 60.8% and the cytotoxicity at 48 h, 25 µg/ml ([2]; HTC-116, 25 ug/ml) was 49.9%. It also gave a viability at 48 h, 25 µg/ml ([2]; HTC-116, 25 ug/ml, read-out: % Cell viability) of 50.1%, a cytotoxicity at 48 h, 50 µg/ml ([2]; HTC-116, 50 ug/ml) of 64.9% and a viability at 48 h, 50 µg/ml ([2]; HTC-116, 50 ug/ml, read-out: % Cell viability) of 35.1%. For the same molecule, the cytotoxicity at 48 h, 100 µg/ml ([2]; HTC-116, 100 ug/ml) was 85.9%, the viability at 48 h, 100 µg/ml ([2]; HTC-116, 100 ug/ml, read-out: % Cell viability) was 14.1% and the IC50 [3] was 3.93 µM. For the same molecule, the cytotoxicity at 48 h, 6.25 µg/ml ([4]; Caco-2, 6.25 ug/ml) was 27.8%, the viability at 48 h, 6.25 µg/ml ([4]; Caco-2, 6.25 ug/ml, read-out: % Cell viability) was 72.2% and the cytotoxicity at 48 h, 12.5 µg/ml ([4]; Caco-2, 12.5 ug/ml) was 37.8%. For the same molecule, the viability at 48 h, 12.5 µg/ml ([4]; Caco-2, 12.5 ug/ml, read-out: % Cell viability) was 62.2%, the cytotoxicity at 48 h, 25 µg/ml ([4]; Caco-2, 25 ug/ml) was 48.9% and the viability at 48 h, 25 µg/ml ([4]; Caco-2, 25 ug/ml, read-out: % Cell viability) was 51.1%. The cytotoxicity at 48 h, 50 µg/ml ([4]; Caco-2, 50 ug/ml) was 66.5%, the viability at 48 h, 50 µg/ml ([4]; Caco-2, 50 ug/ml, read-out: % Cell viability) was 33.5% and the cytotoxicity at 48 h, 100 µg/ml ([4]; Caco-2, 100 ug/ml) was 86.7%. For the same molecule, the viability at 48 h, 100 µg/ml ([4]; Caco-2, 100 ug/ml, read-out: % Cell viability) was 13.3%, the IC50 [5] was 32.8 µg/mL (≈ 104 µM) and the IC50 [6] was 32 µg/mL (≈ 102 µM). It also gave a cytotoxicity at 48 h, 6.25 µg/ml ([7]; HepG2, 6.25 ug/ml) of 24.9%, a viability at 48 h, 6.25 µg/ml ([7]; HepG2, 6.25 ug/ml, read-out: % Cell viability) of 75.1% and a cytotoxicity at 48 h, 12.5 µg/ml ([7]; HepG2, 12.5 ug/ml) of 35.4%. For the same molecule, the viability at 48 h, 12.5 µg/ml ([7]; HepG2, 12.5 ug/ml, read-out: % Cell viability) was 64.9%, the cytotoxicity at 48 h, 25 µg/ml ([7]; HepG2, 25 ug/ml) was 55.9% and the viability at 48 h, 25 µg/ml ([7]; HepG2, 25 ug/ml, read-out: % Cell viability) was 44.1%. It also gave a cytotoxicity at 48 h, 50 µg/ml ([7]; HepG2, 50 ug/ml) of 69.9%, a viability at 48 h, 50 µg/ml ([7]; HepG2, 50 ug/ml, read-out: % Cell viability) of 30.1% and a cytotoxicity at 48 h, 100 µg/ml ([7]; HepG2, 100 ug/ml) of 83.5%. The viability at 48 h, 100 µg/ml ([7]; HepG2, 100 ug/ml, read-out: % Cell viability) was 16.5% and the IC50 [8] was 3.14 µM.
